Data reported in patent US20240197761A1, “FUCOSYLATION AND IMMUNE MODULATION IN CANCER” (H. LEE MOFFITT CANCER CENTER AND RESEARCH INSTITUTE, INC., priority 2021, published 2024).

Legend:
BM-myeloid cells = test: Expression of MDSC biology-related genes in BM-myeloid cells; type: cell-based, mouse; conditions: 24 or 72 hours after initial L-fuc treatment
Method: The expression of key MDSC biology-related genes was measured at 24 or 72 hours after in initial L-fuc treatment of the cells. Reductions in ARGI, PARP, and CHOP expression (red boxes; the expression of these genes are known to be required for MDSC immunosuppression. Increase in STAT1 is shown in green.
Next, we investigated the effect of L-fuc on NO production of bone marrow derived MDSCs (FIGS. 8A and 8B). We observed that L-fuc abrogated NO production in all cases. […] We also wanted to look at how L-fuc treatment effected the expression of immunosuppression genes (FIG. 9). We assessed the expression of key MDSC biology-related genes at 24 or 72 hours after in initial L-fuc treatment of the cells. Generally, we observed reductions in ARGI, PARP, and CHOP expression. In contrast we observed upregulation of STAT1. To further assess how L-fuc/fucosylation affects myeloid phenotype, we modulated fucosylation using DMSO (control), 2-fluoro-fucose (2FIF, fucosylation inhibitor), or L-fuc in mouse bone marrow-derived myeloid progenitors treated ±GM/G-CSF (FIG. 10). We profiled changes In M-MDSC vs. PMN-IMDSC, as well as moDC, as we observed immunostimulatory activity. […] Shown are the average values irom 12 mice. We also observed that L-fucose alters TLR profiles of dendritic cells (FIG. 11).

[1] = system: human PBMC-derived, CD3/CD28-activated CD4+T cells; test: Phosphoproteomic and fuco-proteomic mass spectrometric profiling of CD4+T cells; type: cell-based; conditions: 250 μM L-fucose, 48 h
Source text: FIGS. 14A-14E show Fucosylation of CD4^+T cells affects PKA activity and actin polymerization; and the identification of Integrin P5 as a highly fucosylated protein in activated CD4+ T cells. (a) Top 5 pathways in human CD4^+T cells that are affected by increased fucosylation identified by Ingenuity Pathway Analysis (Qiagen; pathways were identified from phosphoproteomic analyses of CD3/CD28-activated human PBMC-derived CD4^+T cells treated L-fucose (LF) isolated from 3 independent healthy human donors (D1, D2, D3)). (b) (left) Immunoblot of PKA phosphorylated substrates (top) and Ponceau staining (bottom) of human PBMC-derived, CD3/CD28-activated CD4^+T cells that were treated ±250 μM LF±10 μM forskolin (Fkn, a PKA agonist). (right) Densitometric quantification of selected bands (red dashed boxes) normalized to Ponceau staining. (c) Immunoblot of β-actin (top) and Ponceau staining (middle) of human PBMC-derived, CD3/CD28 activated CD4^+T cells were treated ±250 μM LF±25 mM DTSP crosslinker (x-link). (bottom) Densitometric quantification of high molecular weight β-actin oligomers (red dashed boxes) normalized to Ponceau intensity and then normalized to −LF, -x-link samples. (d) Top 5 AAL-bound (fucosylated) proteins in human PBMC-derived, CD3/CD28-activated CD4^+T cells from (a) that were identified by Ingenuity Pathway Analysis (Qiagen). […]

## C[C@H](O)[C@@H](O)[C@@H](O)[C@H](O)C=O [L-fucose]
BM-myeloid cells
  ARGI, PARP, and CHOP expression: reductions
  STAT1 expression: upregulation
[1]
  Protein Kinase A (PKA) and actin signaling: significantly altering
